{"source": "patent US20040266811A1", "about": "“Methods for inducing regeneration, remyelination, and hypermyelination of nervous tissue” (priority 2002, published 2004)", "key": {"[1]": {"system": "TrkA-overexpressing PC12 cells", "assay": "Schwann cell conditioned media on TrkA-overexpressing PC12 cells", "type": "cell-based", "conditions": "Schwann cells 1 μM GM-284 48 h; CM on PC12 72 h", "experimental": "Wild-type and TrkA-overexpressing PC12 cells (Hempstead et al., Overexpression of the trk tyrosine kinase rapidly accelerates nerve growth factor-induced differentiation. Neuron, 9:883-96, 1992) were maintained in DMEM supplemented with 10% calf serum and 5% horse serum, the latter of which was also supplemented with 200 μg/ml G418 to maintain TrkA selection. Cultures were treated with 100 ng/ml NGF or the immunophilin ligands, or treated with Schwann-cell-conditioned medium supplemented with 5% horse serum, as indicated below. To generate GFP-expressing PC12 cells, a bicistronic pCX-bsr retroviral vector (Escalante et al., Phosphorylation of c-Crk II on the negative regulatory Tyr222 mediates nerve growth factor-induced cell spreading and morphogenesis. J. Biol. Chem., 275:24787-797, 2000), which drives expression of green fluorescent protein (GFP), was used to infect dividing PC12 cells.\nTo more directly examine the involvement of Schwann cells in mediating the neuritogenic capacities of GM-284, PC12 cells were infected with GFP-expressing retrovirus, and co-cultured on monolayers of Schwann cells, in the presence of either NGF, GM-284, or vehicle, for 48 h (FIG. 4B, panels a-c). […]"}, "crushed sciatic nerve": {"system": "crushed sciatic nerve", "assay": "Sciatic nerve crush and regeneration (electron microscopy morphometry)", "type": "in vivo, adult, outbred ICR mice", "experimental": "(A) The sciatic nerves of adult, outbred ICR mice were crushed, as previously described (Gondre et al., Accelerated nerve regeneration mediated by Schwann cells expressing a mutant form of the POU protein SCIP. J. Cell Biol., 141:493-501, 1998). Following the surgery, the animals were randomized into treatment groups of either GM-284 (10 mg/kg) or vehicle. At the end of 30 days, the animals were sacrificed, their sciatic nerves were prepared for electron microscopy, and subsequently evaluated for the extent of both axonal and myelin regeneration. All sampling was done at the same proximal-distal levels, and approximately 5 mm below the crush site. […] (B) Quantitative analysis of both axonal and myelin growth in response to GM-284 treatment was carried out by digitizing the images in (A), and determining the axonal and myelin volumes, calculated in voxels.\nMice were anesthetized (i.p.) with 0.5 cc of 2.5% Avertin/saline, before perfusion via the left ventricle. The animals were perfused for 30 min at 37° C., with a rat Ringer's solution containing heparin (2.0 ml/L; stock=10,000 units/ml) and 2% lidocaine (3.0 ml/L), followed by perfusion for 7-10 min with 2% glutaraldehyde/1% paraformaldehyde in 0.15 M sodium cacodylate, pH 7.2. Approximately 1 cm of sciatic nerve was dissected from the hind leg (from the hip to the knee), and split into 3 sections (proximal, medial, and distal). A 2-mm length was taken from each of the three sections, then immersion fixed. The primary fixation was carried out for 2-4 h total, at 4° C., with 2% glutaraldehyde/1% paraformaldehyde in 0.15 M sodium cacodylate buffer, pH 7.2. Tissues were rinsed 6 times, for 20 min each, then rinsed overnight at 4° C. in 0.15 M sodium cacodylate buffer, pH 7.2.\nSecondary fixation was carried out for 4 h at 4° C. in 1% osmium-tetroxide/1.5% potassium-ferrocyanide in 0.15 M sodium cacodylate buffer, pH 7.2. Tissues were rinsed 3 times, for 10 min each, in Millipore-filtered water at 4° C., then stained en bloc in 2% uranyl acetate (aq) at 4° C. for 1 h. At this point, the tissues were dehydrated once for 8 min in a graded ethanol series starting with water, 30%, 50%, 70%, 95%, and then dehydrated twice, for 10 min each, in 100% ethanol and then in propylene oxide. After dehydration, the nerve tissue was infiltrated with propylene oxide/Durcupan (Fluka Chemika-BioChemika, Ronkonkoma, N.Y.), in a 25/75 ratio, for 60 min at room temperature. This was followed by infiltration three times, for 120 min each, in Durcupan resin at room temperature. Sciatic nerves were flat-embedded in fresh Durcupan resin, and polymerized for 24-36 h at 65° C. 1-μM-thick sections were stained with Toluidine blue. Silver sections were cut on a Diatome diamond knife, and stained with 2% uranyl acetate for 30 min at room temperature, and with Reynold's lead citrate for 7 min. Thin sections were viewed at 60 kv, and photographed on a JEOL 100 CX conventional transmission electron microscope.\nDeep anesthesia was obtained with i.p. injection of Avertin. Electrophysiology recordings were obtained, as previously described (Bieri et al., Abnormal nerve conduction studies in mice expressing a mutant form of the POU transcription factor SCIP. J. Neurosci. Res., 50:821-28, 1997). Immediately afterward, the right sciatic nerve of each animal was exposed and crushed 2 times, for 30 sec each, using a #5 Dumont forceps. In brief, the skin was prepped bilaterally prior to electrophysiologic testing. […]"}, "[2]": {"conditions": "10 mg/kg daily, one month after crush"}}, "note": "“And” between values parts separate entries of the source, which are not always exact repeats. Equal entries are not always repeated. “Also recorded” adds a separate entry of the source."}
{"compound": "CCC(C)(C)C(=O)C(=O)N1CCC[C@H]1c1nnc([C@@H]2CCCN2C(=O)C(=O)C(C)(C)CC)o1", "note": "[GM-284]", "values": [{"measurement": "neurite outgrowth induced by conditioned media from treated Schwann cells", "setting": "[1]", "result": "promoted significant neurite outgrowth; also recorded: Neurite promotion was observed only in the GM-284-treated Schwann cells' conditioned media"}, {"measurement": "increase in myelin (volume in voxels)", "setting": "crushed sciatic nerve; [2]", "result": "~3", "unit": "fold"}, {"measurement": "increase in the size of myelinated axons", "setting": "crushed sciatic nerve; [2]", "result": "3- to 4 fold and 4 fold"}, {"measurement": "histology of regenerated sciatic nerve", "setting": "crushed sciatic nerve; 10 mg/kg daily, one month after crush, electron microscopy", "result": "induced both axonal hypertrophy and a global over-elaboration of the myelin organelle; also recorded: enhanced axonal regeneration; also recorded: clear axonal hypertrophy, as well as hypermyelination; also recorded: hypermyelination and axonal hypertrophy"}, {"measurement": "ratio of axonal volume to myelin volume", "setting": "crushed sciatic nerve; GM-284-treated group, NIH Image", "result": 0.2}, {"measurement": "increase in myelin volume, relative to each axon", "setting": "crushed sciatic nerve; vs vehicle, p<0.0001", "result": 20, "unit": "fold"}]}
